Data reported in ChEMBL document CHEMBL3769388, “Optimization of a Dicarboxylic Series for in Vivo Inhibition of Citrate Transport by the Solute Carrier 13 (SLC13) Family” (J Med Chem, 2016).
Values after ≈ are worked out from the molar mass of the structure shown. Active and inactive are the calls of the source. The calls are words filed in the database; no cut-off is given here.

Columns and labels:
[1] = Clearance in mouse hepatocytes assessed per 10^6 cells; type: ADME, cell-based, Hepatocyte; details: read-out: CLH
[2] = biological target: Vasopressin V1a receptor (Homo sapiens) (UniProt P37288); assay: Inhibition of AVPR1A (unknown origin)
[3] = biological target: Endothelin-1 receptor (Homo sapiens) (UniProt P25101); assay: Inhibition of ETA (unknown origin)
[4] = Clearance in rat hepatocytes assessed per 10^6 cells; type: ADME, cell-based, Hepatocyte; details: read-out: CLH
[5] = biological target: Muscarinic acetylcholine receptor M3 (Homo sapiens) (UniProt P20309); assay: Inhibition of M3 (unknown origin)
Bile salt export pump = Bile salt export pump (Homo sapiens, UniProt O95342); assay: Inhibition of ABCB11 (unknown origin)
[6] = biological target: Muscarinic acetylcholine receptor M1 (Homo sapiens) (UniProt P11229); assay: Inhibition of M1 (unknown origin)
[7] = Half life in Wistar Han rat at 1 mg/kg, iv by LC-MS/MS analysis; type: ADME, organism-based; details: in vivo
[8] = biological target: Sodium-dependent serotonin transporter (Homo sapiens) (UniProt P31645); assay: Inhibition of 5HTT (unknown origin)
[9] = biological target: Vascular endothelial growth factor receptor 2 (Homo sapiens) (UniProt P35968); assay: Inhibition of VEGFR2 (unknown origin)
[10] = biological target: Epidermal growth factor receptor (Homo sapiens) (UniProt P00533); assay: Inhibition of EGFR (unknown origin)
[11] = AUC(0 to t) in Wistar Han rat at 5 mg/kg, po by LC-MS/MS analysis; type: ADME, organism-based; details: in vivo
[12] = Total plasma clearance in Wistar Han rat at 1 mg/kg, iv by LC-MS/MS analysis; type: ADME, organism-based
[13] = biological target: Gamma-aminobutyric acid receptor subunit alpha-1 (Homo sapiens) (UniProt P14867); assay: Inhibition of GABRA1 (unknown origin)
Rattus norvegicus [14] = assay: Decrease in [14C]citrate uptake in iv dosed Wistar Han rat testis measured after 185 to 200 mins by scintillation counting method; type: functional, organism-based
[15] = biological target: 5-hydroxytryptamine receptor 3A (Homo sapiens) (UniProt P46098); assay: Inhibition of 5HT3 receptor (unknown origin)
Chain of 5-hydroxytryptamine receptor 3A (Homo sapiens) (P46098 whole entry): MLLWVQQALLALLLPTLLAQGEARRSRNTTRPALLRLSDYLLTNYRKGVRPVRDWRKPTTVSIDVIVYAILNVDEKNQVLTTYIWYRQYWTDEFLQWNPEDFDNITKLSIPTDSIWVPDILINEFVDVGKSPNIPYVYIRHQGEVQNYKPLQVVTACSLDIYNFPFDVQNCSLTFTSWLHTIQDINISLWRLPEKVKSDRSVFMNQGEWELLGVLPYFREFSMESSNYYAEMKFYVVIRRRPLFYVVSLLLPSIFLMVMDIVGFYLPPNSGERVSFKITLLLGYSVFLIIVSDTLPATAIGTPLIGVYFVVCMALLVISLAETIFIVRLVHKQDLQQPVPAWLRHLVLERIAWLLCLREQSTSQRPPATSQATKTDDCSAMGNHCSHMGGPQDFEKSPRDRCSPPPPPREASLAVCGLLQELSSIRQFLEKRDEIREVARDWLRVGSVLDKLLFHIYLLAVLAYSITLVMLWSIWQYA

[16] = biological target: Alpha-1A adrenergic receptor (Homo sapiens) (UniProt P35348); assay: Inhibition of ADRA1A (unknown origin)
Chain of Alpha-1A adrenergic receptor (Homo sapiens) (P35348 whole entry): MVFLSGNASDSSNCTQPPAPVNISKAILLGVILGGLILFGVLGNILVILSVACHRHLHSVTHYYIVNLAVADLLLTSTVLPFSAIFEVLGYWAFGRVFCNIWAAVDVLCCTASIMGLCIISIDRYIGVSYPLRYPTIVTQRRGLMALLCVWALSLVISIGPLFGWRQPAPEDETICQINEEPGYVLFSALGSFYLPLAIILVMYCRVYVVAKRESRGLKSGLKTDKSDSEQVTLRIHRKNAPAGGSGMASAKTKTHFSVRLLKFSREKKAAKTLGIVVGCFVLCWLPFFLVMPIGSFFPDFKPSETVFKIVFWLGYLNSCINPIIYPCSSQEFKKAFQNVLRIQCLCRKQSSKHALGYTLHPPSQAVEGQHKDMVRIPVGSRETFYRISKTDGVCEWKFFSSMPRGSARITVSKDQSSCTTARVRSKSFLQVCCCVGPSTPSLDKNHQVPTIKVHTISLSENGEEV

[17] = biological target: Na(+)/dicarboxylate cotransporter 3 (Homo sapiens, UniProt Q8WWT9); assay: Inhibition of NaDC3 (unknown origin) expressed in HEK293 cells assessed as inhibition of [14C]citrate uptake by microbeta plate reader analysis; type: cell-based
Chain of Na(+)/dicarboxylate cotransporter 3 (Q8WWT9 whole entry): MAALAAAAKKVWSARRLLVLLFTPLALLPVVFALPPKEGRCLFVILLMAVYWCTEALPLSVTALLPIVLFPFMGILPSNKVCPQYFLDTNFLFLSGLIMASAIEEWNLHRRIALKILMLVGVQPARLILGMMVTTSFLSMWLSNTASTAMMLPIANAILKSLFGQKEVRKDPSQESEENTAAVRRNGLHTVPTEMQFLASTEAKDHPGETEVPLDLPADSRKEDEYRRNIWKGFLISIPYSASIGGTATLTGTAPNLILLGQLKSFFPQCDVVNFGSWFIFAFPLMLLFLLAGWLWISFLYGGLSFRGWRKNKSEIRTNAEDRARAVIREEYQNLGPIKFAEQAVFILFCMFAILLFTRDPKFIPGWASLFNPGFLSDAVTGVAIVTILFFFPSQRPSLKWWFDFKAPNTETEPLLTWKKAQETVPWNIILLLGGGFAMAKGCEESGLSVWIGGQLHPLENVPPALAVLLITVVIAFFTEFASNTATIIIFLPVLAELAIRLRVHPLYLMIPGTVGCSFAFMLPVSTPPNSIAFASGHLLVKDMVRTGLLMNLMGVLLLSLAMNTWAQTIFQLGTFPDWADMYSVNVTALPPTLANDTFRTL

[18] = biological target: Kappa-type opioid receptor (Homo sapiens) (UniProt P41145); assay: Inhibition of OPRK1 (unknown origin)
[19] = biological target: Acetylcholinesterase (Homo sapiens) (UniProt P22303); assay: Inhibition of ACHE (unknown origin)
Chain of Acetylcholinesterase (Homo sapiens) (P22303 whole entry): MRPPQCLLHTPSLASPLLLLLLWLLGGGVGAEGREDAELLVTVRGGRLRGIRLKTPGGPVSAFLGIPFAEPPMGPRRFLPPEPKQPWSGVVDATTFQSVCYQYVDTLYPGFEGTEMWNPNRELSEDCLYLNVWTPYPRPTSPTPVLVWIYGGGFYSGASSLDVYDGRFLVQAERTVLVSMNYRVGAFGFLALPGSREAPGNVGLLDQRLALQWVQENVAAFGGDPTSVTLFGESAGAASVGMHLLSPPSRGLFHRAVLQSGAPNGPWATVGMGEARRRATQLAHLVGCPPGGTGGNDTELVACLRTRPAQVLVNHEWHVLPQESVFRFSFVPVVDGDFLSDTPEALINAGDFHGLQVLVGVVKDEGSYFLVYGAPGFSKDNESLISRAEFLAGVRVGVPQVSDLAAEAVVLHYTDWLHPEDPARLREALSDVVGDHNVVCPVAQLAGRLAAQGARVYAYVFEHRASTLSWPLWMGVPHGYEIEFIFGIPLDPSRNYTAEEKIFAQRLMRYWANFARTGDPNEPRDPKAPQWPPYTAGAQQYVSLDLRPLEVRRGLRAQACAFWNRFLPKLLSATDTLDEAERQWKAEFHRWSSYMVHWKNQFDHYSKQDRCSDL

[20] = biological target: Tyrosine-protein kinase ABL1 (Homo sapiens) (UniProt P00519); assay: Inhibition of ABL1 (unknown origin)
Rattus norvegicus [21] = assay: Decrease in [14C]citrate uptake in iv dosed Wistar Han rat liver measured after 185 to 200 mins by scintillation counting method; type: functional, organism-based
[22] = biological target: 5-hydroxytryptamine receptor 2B (Homo sapiens) (UniProt P41595); assay: Inhibition of 5HT2B receptor (unknown origin)
Rattus norvegicus [23] = species: Rattus norvegicus; assay: Increase in [12C]-citrate levels in rat liver measured over 140 to 150 mins by UPLC-MS/MS analysis; type: functional, organism-based
[24] = biological target: Voltage-gated L-type calcium channel (Homo sapiens, UniProt Q13936+Q13698+Q01668+O60840); assay: Inhibition of L type calcium channel (unknown origin); type: protein assay
[25] = biological target: Histamine H1 receptor (Homo sapiens) (UniProt P35367); assay: Inhibition of H1 (unknown origin)
Chain of Histamine H1 receptor (Homo sapiens) (P35367 whole entry): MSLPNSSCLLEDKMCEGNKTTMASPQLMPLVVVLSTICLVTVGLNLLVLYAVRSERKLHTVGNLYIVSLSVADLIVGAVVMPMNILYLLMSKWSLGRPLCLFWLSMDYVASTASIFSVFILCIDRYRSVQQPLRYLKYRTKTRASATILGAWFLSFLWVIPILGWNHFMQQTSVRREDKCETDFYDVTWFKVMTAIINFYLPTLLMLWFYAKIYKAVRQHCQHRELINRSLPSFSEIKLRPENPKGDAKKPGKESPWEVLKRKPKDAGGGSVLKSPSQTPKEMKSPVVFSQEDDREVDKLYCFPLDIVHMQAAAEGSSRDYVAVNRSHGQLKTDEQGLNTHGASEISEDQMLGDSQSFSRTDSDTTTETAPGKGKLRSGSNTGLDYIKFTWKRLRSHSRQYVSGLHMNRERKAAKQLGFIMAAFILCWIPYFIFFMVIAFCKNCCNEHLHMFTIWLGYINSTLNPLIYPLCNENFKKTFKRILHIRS

Cytochrome P450 2D6 = Cytochrome P450 2D6 (Homo sapiens, UniProt P10635); assay: Inhibition of CYP2D6 (unknown origin); type: ADME
[26] = biological target: Alpha-2A adrenergic receptor (Homo sapiens) (UniProt P08913); assay: Inhibition of ADRA2A (unknown origin)
[27] = biological target: Tyrosine-protein kinase Lck (Homo sapiens) (UniProt P06239); assay: Inhibition of LCK (unknown origin)
[28] = Thermodynamic solubility of compound in aqueous solution at pH 6.5; type: physicochemical; details: read-out: Therm_solubility
Cytochrome P450 2C8 = Cytochrome P450 2C8 (Homo sapiens, UniProt P10632); assay: Inhibition of CYP2C8 (unknown origin); type: ADME
[29] = biological target: D(2) dopamine receptor (Homo sapiens) (UniProt P14416); assay: Inhibition of D2 (unknown origin)
[30] = biological target: Substance-P receptor (Homo sapiens) (UniProt P25103); assay: Inhibition of NK1 receptor (unknown origin)
[31] = biological target: Androgen receptor (Homo sapiens) (UniProt P10275); assay: Inhibition of Androgen receptor (unknown origin)
[32] = Fraction unbound in Wistar Han rat by equilibrium dialysis method; type: ADME
[33] = biological target: Sodium channel protein type 1 subunit alpha (Homo sapiens) (UniProt P35498); assay: Inhibition of NaV1.1 (unknown origin)
[34] = biological target: Cannabinoid receptor 1 (Homo sapiens) (UniProt P21554); assay: Inhibition of CB1 (unknown origin)
Chain of Cannabinoid receptor 1 (Homo sapiens) (P21554 whole entry): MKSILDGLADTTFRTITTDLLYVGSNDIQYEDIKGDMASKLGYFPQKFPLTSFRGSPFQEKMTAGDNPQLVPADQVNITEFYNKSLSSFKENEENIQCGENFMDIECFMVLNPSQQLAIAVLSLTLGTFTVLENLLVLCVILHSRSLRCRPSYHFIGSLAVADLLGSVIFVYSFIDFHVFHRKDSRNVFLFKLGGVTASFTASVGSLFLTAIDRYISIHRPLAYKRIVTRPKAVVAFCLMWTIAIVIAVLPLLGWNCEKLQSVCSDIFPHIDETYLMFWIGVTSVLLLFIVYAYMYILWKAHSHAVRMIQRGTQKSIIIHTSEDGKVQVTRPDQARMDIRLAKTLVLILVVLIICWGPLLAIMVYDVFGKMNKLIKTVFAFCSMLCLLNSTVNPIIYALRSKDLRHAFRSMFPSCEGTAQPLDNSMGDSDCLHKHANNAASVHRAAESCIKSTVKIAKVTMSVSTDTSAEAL

[35] = biological target: Voltage-gated inwardly rectifying potassium channel KCNH2 (Homo sapiens, UniProt Q12809); assay: Inhibition of human ERG
[36] = biological target: Alpha-2B adrenergic receptor (Homo sapiens) (UniProt P18089); assay: Inhibition of ADRA2B (unknown origin)
[37] = biological target: Mitogen-activated protein kinase 14 (Homo sapiens) (UniProt Q16539); assay: Inhibition of MAPK14/P38-alpha (unknown origin)
[38] = biological target: Muscarinic acetylcholine receptor M2 (Homo sapiens) (UniProt P08172); assay: Inhibition of M2 (unknown origin)
Cytochrome P450 2C9 = Cytochrome P450 2C9 (Homo sapiens, UniProt P11712); assay: Inhibition of CYP2C9 (unknown origin); type: ADME
[39] = biological target: Sodium-dependent phosphate transport protein 1 (Homo sapiens) (UniProt Q14916); assay: Inhibition of NaPiA1 (unknown origin)
Chain of Sodium-dependent phosphate transport protein 1 (Homo sapiens) (Q14916 whole entry): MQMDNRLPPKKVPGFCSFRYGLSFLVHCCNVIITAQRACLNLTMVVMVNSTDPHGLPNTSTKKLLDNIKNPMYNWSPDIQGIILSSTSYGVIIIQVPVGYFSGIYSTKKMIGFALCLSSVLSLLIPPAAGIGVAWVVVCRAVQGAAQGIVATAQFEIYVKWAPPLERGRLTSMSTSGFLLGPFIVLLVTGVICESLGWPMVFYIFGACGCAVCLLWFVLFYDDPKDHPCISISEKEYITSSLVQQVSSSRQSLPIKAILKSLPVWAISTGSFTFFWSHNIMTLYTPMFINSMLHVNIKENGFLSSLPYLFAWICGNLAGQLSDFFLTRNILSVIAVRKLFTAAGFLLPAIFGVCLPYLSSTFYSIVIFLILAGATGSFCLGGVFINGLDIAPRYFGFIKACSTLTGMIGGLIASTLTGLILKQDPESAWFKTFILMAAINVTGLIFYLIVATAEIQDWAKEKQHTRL

[40] = biological target: Na(+)/citrate cotransporter (Rattus norvegicus, UniProt Q8CJ44); assay: Inhibition of NaCT in rat hepatocytes assessed as [14C]-citrate uptake after 30 mins by scintillation counting method; type: cell-based, Hepatocyte
Rattus norvegicus [41] = species: Rattus norvegicus; assay: Increase in [12C]-citrate levels in rat plasma measured over 140 to 150 mins by UPLC-MS/MS analysis; type: functional, organism-based
[42] = biological target: Beta-2 adrenergic receptor (Homo sapiens) (UniProt P07550); assay: Inhibition of ADRB2 (unknown origin)
[43] = biological target: Na(+)/citrate cotransporter (Homo sapiens, UniProt Q86YT5); assay: Inhibition of NaCT in human hepatocytes assessed as [14C]-citrate uptake after 30 mins by scintillation counting method; type: cell-based, Hepatocyte
Chain of Na(+)/citrate cotransporter (Homo sapiens, UniProt Q86YT5) (Q86YT5 whole entry): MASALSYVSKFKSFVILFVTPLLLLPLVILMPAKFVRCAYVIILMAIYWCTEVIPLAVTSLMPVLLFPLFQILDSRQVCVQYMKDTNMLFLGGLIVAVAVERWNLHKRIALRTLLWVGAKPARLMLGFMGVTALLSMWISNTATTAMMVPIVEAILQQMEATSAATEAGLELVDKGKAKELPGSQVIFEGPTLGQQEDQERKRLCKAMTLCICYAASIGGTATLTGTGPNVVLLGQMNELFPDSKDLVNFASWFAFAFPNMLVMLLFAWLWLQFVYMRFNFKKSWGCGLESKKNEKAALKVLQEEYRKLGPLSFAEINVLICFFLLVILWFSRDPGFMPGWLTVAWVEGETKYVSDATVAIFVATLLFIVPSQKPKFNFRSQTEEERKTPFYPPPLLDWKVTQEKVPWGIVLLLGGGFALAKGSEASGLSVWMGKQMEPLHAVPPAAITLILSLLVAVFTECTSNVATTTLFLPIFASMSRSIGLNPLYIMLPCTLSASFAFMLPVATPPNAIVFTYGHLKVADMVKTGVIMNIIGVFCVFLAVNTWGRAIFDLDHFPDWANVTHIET

[44] = biological target: High affinity choline transporter 1 (Homo sapiens) (UniProt Q9GZV3); assay: Inhibition of choline transporter 1 (unknown origin)
[45] = biological target: Peroxisome proliferator-activated receptor gamma (Homo sapiens) (UniProt P37231); assay: Inhibition of PPAR gamma (unknown origin)
Chain of Peroxisome proliferator-activated receptor gamma (Homo sapiens) (P37231 whole entry): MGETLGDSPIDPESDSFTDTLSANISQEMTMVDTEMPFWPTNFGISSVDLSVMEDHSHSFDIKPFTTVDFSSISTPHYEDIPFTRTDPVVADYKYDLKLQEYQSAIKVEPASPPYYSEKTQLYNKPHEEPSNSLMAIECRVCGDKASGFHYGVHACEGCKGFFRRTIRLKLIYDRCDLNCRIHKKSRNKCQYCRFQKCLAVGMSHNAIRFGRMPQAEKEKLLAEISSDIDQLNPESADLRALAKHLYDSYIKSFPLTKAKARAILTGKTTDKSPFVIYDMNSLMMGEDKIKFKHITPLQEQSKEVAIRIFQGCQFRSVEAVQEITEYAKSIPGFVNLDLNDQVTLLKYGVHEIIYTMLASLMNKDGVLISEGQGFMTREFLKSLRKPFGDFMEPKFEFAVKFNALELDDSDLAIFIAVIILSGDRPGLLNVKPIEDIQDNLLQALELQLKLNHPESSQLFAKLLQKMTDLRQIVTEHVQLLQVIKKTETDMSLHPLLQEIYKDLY

COc1ncc(C)cc1CC[C@@](O)(CC(=O)O)C(=O)O
hepatocyte CLint [1]: < 6 µL/min/1e6 cells | inhibition [2]: inactive | inhibition [3]: inactive | hepatocyte CLint [4]: < 6 µL/min/1e6 cells | inhibition [5]: inactive | inhibition (INH) (Bile salt export pump): Not Active | inhibition [6]: inactive | half-life [7]: 1.7 h | inhibition [8]: inactive | inhibition [9]: inactive | inhibition [10]: inactive | AUC(0-t) [11]: 4890 ng·h/mL | clearance [12]: 15.8 mL/min/kg | inhibition [13]: inactive | IC50 (Rattus norvegicus [14]): 1000 nM | inhibition [15]: inactive | inhibition [16]: inactive | IC50 ([17]; read-out: IC50): 14100 nM | IC50 ([17]; read-out: pIC50 (converted)): 10000 nM | inhibition [18]: inactive | inhibition [19]: inactive | inhibition [20]: inactive | IC50 (Rattus norvegicus [21]): 1400 nM | inhibition [22]: inactive | Activity (Rattus norvegicus [23]): Active | inhibition (INH) [24]: Not Active | inhibition [25]: inactive | inhibition (INH) (Cytochrome P450 2D6): Not Active | inhibition [26]: inactive | inhibition [27]: inactive | solubility thermodynamic [28]: 24 µM (≈ 6.8 µg/mL) | inhibition (INH) (Cytochrome P450 2C8): Not Active | inhibition [29]: inactive | inhibition [30]: inactive | inhibition [31]: inactive | fraction unbound [32]: 0.135 | inhibition [33]: inactive | inhibition [34]: inactive | inhibition (INH) [35]: Not Active | inhibition [36]: inactive | inhibition [37]: inactive | inhibition [38]: inactive | inhibition (INH) (Cytochrome P450 2C9): Not Active | inhibition [39]: inactive | IC50 [40]: 120 nM | Activity (Rattus norvegicus [41]): Active | inhibition [42]: inactive | IC50 [43]: 740 nM | inhibition [44]: inactive | inhibition [45]: inactive
